# According to PMC11725127 (Acta Pharmaceutica Sinica. B, 2024):
# How the values were obtained:
# [1] = molecular target: ubiquitin-specific protease 2 (USP2) (Homo sapiens, UniProt O75604); test: LC-MS/MS covalent adduct on recombinant USP2; assay type: biochemical
# [2] = molecular target: ubiquitin-specific protease 2 (USP2) (Homo sapiens, UniProt O75604, C284S); test: thermal stability shift; assay type: cell-based
# USP7 = USP7 (Homo sapiens, UniProt Q93009); test: in vitro gel-based GST-UBA52 cleavage assay; assay type: biochemical
# Sequence of USP7 (Q93009 whole entry): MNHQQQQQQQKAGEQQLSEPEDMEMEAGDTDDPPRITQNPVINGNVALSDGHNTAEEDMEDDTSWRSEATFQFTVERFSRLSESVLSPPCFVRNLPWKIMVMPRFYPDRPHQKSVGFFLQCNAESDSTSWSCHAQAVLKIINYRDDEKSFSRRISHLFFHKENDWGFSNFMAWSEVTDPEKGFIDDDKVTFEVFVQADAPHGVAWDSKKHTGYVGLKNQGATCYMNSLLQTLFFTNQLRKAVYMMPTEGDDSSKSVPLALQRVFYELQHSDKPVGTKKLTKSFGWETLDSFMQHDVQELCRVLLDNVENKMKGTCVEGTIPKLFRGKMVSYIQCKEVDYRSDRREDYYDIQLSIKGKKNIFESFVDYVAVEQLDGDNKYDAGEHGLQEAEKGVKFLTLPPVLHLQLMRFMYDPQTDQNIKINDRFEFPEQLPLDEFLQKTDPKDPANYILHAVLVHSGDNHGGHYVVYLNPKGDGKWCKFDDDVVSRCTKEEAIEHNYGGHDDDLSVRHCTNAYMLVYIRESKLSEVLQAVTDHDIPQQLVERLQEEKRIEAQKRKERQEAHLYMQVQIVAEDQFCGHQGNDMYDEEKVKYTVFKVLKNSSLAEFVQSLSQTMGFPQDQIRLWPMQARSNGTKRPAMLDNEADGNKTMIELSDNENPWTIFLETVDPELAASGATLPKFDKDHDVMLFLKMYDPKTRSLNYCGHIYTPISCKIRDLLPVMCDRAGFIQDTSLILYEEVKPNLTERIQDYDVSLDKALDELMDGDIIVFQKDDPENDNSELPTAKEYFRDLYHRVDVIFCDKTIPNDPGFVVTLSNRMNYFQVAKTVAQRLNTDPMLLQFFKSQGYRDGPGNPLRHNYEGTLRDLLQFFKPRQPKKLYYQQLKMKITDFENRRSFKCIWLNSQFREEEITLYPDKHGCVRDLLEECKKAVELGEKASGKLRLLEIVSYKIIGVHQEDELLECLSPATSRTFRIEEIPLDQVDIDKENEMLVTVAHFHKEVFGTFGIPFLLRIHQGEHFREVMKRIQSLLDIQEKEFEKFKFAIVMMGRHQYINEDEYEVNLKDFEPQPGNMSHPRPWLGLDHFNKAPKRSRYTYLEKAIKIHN
# Sequence of ubiquitin-specific protease 2 (USP2) (Homo sapiens, UniProt O75604) (O75604 259-605): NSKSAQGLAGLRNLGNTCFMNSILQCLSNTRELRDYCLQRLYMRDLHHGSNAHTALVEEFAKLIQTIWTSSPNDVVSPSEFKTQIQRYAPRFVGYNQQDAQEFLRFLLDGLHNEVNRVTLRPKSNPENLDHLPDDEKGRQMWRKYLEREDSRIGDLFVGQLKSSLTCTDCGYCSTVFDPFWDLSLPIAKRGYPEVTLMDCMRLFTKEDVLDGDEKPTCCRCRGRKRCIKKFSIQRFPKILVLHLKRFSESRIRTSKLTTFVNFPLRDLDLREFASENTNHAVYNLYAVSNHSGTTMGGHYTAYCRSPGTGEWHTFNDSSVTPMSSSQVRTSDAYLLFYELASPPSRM
# Sequence of ubiquitin-specific protease 2 (USP2) (Homo sapiens, UniProt O75604, C284S) (O75604 whole entry C284S): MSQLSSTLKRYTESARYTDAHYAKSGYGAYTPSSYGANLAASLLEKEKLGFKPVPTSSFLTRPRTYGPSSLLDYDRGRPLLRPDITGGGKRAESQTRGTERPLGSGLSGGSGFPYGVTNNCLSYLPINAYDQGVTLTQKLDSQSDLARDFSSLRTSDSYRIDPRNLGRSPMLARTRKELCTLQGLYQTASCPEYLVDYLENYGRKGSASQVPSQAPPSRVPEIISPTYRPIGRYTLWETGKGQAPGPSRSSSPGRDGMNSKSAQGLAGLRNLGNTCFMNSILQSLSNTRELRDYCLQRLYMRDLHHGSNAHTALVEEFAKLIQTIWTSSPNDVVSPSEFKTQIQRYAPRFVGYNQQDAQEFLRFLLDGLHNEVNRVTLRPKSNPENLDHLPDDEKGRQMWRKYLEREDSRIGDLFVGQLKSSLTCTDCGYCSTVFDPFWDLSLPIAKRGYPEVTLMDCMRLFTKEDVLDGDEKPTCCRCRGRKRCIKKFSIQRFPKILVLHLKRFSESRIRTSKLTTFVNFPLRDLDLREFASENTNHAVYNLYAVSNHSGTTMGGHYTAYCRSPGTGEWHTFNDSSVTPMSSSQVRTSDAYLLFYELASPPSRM
smiles,measurement,setting,value
"CC(C)=CCC[C@]1(C)C=Cc2c(O)c3c(c(CC=C(C)C)c2O1)O[C@]12C(=C[C@@H]4C[C@H]1C(C)(C)O[C@@]2(C/C=C(/C)C(=O)O)C4=O)C3=O [GA, gambogic acid]",IC50,[1],1.8 µM
same,thermal stability shift (Fig. S15),[2],the thermal stability of USP2^Cys284S could also be altered by GA
same,IC50,USP7,17 µM
